US5468734A, “Prophylactic and remedial preparation for diseases attendant on hyperglycemia, and wholesome food” (Godo Shusei Co., Ltd., priority 1992, dated 1995)

Legend:
rise in blood sugar = assay: Action to depress the rise in blood sugar after sucrose loading to mice; type: in vivo, ICR male mice; details: for Rise in blood sugar / action to depress the rise in blood sugar due to sucrose loading (in words): sucrose 1 g/kg; for Rise in blood sugar: average ± standard error; for action to depress the rise in blood sugar due to sucrose loading (in words): orally 25, 50 and 100 mg/kg (L-arabinose, D-xylose) or 100 mg/kg (others); for action to depress the rise in blood sugar for sucrose or starch loading (in words): summary statement
[1] = target: T1, sucrase (carbohydrase derived from rabbit small intestine mucous membrane) (Oryctolagus cuniculus, UniProt P07768); assay: Action to inhibit the hydrolytic activity of homogenate prepared from rabbit small intestine mucous membrane: sucrase inhibition; type: biochemical; details: for inhibition at 250 µg/mL / inhibition at 500 µg/mL / inhibition at 1000 µg/mL / inhibition at 2000 µg/mL: 0.25 h, substrate sucrose 20 mM, pH 6.8, 37° C., 15 minutes, read-out: Sucrase inhibition rate; for inhibition at 250 µg/mL: 25 mg/dl; for inhibition at 500 µg/mL: 50 mg/dl; for inhibition at 1000 µg/mL: 100 mg/dl; for inhibition at 2000 µg/mL: 200 mg/dl
T1 construct: suspended again in a 10 mM potassium phosphate buffer (pH: 7.0), thereby obtaining a crude enzyme suspension; from tissue; host or cells: rabbit small intestine (title: mucous membrane), homogenate, 60,000×g precipitate
Description: (§1) (Action to inhibit the hydrolytic activity of homogenate prepared from rabbit small intestine mucous membrane to carbohydrate)
(§2) A native kind of white rabbits (weight: 3.0-3.5 kg) were sacrificed by exsanguination to take out their small intestines.
(§3) After freezing and thawing the small intestines thus taken out, they were homogenized in a 5 mM EDTA buffer (pH: 7.0) and subjected to centrifugation for 60 minutes at 60,000×g. Precipitate thus formed was collected and suspended again in a 10 mM potassium phosphate buffer (pH: 7.0), thereby obtaining a crude enzyme suspension.
(§4) Sucrose (20 mM) and maltose (20 mM) were used as substrates.
(§5) Each reaction mixture was formulated so as to contain 350 microliters of a 100 mM maleate buffer (pH: 6.8), 100 microliters of a substrate solution, 50 microliters of the crude enzyme suspension and 50 microliters of a test solution. Substances to be tested were separately dissolved in a maleate buffer (pH: 6.8) before use.
(§6) Respective reactions were conducted for 15 minutes at 37° C.

[2] = test system: maltase (carbohydrase derived from rabbit small intestine mucous membrane); assay: Action to inhibit the hydrolytic activity of homogenate prepared from rabbit small intestine mucous membrane: maltase inhibition; type: biochemical; details: for Maltase inhibition rate: substrate maltose 20 mM, pH 6.8, 37° C., 15 minutes
Description: as §1, §2, §3, §4, §5, §6

[3] = dose 100 mg/kg oral, after 30 min.
[4] = dose 100 mg/kg oral, after 60 min.
[5] = dose 100 mg/kg oral, after 120 min.

T1 sequence (P07768 1008-1827 limits assumed): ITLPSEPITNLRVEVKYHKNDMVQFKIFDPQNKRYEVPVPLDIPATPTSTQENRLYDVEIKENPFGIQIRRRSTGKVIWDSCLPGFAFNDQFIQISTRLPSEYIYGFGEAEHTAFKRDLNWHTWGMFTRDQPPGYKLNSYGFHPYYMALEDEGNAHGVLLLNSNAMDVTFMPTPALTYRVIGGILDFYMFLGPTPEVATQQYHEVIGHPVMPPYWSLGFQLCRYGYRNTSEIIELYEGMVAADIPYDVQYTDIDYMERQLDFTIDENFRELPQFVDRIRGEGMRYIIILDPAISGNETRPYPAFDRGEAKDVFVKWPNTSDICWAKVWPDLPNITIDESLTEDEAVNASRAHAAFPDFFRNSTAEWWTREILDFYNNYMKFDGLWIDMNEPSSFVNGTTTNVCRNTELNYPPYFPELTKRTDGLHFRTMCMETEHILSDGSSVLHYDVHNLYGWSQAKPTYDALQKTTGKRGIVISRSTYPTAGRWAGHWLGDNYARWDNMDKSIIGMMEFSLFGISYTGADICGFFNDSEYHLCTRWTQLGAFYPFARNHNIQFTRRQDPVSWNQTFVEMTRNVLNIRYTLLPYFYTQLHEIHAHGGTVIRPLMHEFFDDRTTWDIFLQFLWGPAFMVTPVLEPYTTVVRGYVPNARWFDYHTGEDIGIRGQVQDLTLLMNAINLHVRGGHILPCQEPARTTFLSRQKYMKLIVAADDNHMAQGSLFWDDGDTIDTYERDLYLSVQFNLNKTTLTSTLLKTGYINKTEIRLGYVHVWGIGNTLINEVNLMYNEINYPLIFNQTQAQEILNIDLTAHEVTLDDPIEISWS
T1 sequence (P07768 2-1007 partner limits assumed): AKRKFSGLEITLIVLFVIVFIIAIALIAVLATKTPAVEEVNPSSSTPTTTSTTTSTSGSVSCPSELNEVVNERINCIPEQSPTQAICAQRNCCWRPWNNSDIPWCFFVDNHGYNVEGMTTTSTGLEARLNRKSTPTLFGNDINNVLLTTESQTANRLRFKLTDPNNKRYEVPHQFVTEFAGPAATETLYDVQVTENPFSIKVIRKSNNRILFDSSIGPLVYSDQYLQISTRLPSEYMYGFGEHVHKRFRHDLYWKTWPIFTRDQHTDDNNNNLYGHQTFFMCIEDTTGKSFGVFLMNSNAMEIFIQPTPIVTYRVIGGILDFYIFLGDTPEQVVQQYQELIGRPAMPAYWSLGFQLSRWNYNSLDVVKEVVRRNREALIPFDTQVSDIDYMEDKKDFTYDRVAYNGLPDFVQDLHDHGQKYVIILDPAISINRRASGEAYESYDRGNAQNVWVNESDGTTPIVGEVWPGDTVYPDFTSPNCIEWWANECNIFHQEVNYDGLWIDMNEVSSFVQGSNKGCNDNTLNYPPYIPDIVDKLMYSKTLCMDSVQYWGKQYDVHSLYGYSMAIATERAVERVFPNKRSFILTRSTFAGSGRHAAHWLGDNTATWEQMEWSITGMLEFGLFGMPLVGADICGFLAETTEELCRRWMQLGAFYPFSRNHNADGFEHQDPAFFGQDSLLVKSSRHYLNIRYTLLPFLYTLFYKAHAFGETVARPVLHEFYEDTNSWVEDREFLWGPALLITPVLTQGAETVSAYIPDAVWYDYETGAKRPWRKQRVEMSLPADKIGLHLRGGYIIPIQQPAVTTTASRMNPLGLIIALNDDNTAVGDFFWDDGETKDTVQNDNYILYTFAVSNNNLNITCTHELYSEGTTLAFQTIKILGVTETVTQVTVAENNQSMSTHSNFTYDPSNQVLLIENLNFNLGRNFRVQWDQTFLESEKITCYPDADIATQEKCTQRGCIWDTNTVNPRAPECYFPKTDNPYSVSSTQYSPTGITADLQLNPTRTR

Structure (SMILES) | sucrase-inhibiting action (in words) [1] | inhibition at 250 µg/mL [1] [%] | inhibition at 500 µg/mL [1] [%] | inhibition at 1000 µg/mL [1] [%] | inhibition at 2000 µg/mL [1] [%] | Maltase inhibition rate ([2]; 25 mg/dl) [%] | Maltase inhibition rate ([2]; 50 mg/dl) [%] | Maltase inhibition rate ([2]; 100 mg/dl) [%] | Maltase inhibition rate ([2]; 200 mg/dl) [%] | Rise in blood sugar (rise in blood sugar; [3]) | Rise in blood sugar (rise in blood sugar; [4]) | Rise in blood sugar (rise in blood sugar; [5]) | action to depress the rise in blood sugar due to sucrose loading (in words) (rise in blood sugar) | action to depress the rise in blood sugar for sucrose or starch loading (in words) (rise in blood sugar) | maltase-inhibiting action (in words) [2] | Rise in blood sugar (rise in blood sugar; dose 25 mg/kg oral, after 30 min.) | Rise in blood sugar (rise in blood sugar; dose 25 mg/kg oral, after 60 min.) | Rise in blood sugar (rise in blood sugar; dose 50 mg/kg oral, after 30 min.) | Rise in blood sugar (rise in blood sugar; dose 50 mg/kg oral, after 60 min.) | Rise in blood sugar (rise in blood sugar; dose 50 mg/kg oral, after 120 min.)
O=C(CO)[C@@H](O)[C@@H](O)[C@H](O)CO [D-Tagatose, D-tagatose] | strong sucrase-inhibiting action | 8.9 | 15.7 | 30 | 36.6 | 12.5 | 17.7 | 30.3 | 33.9 | 60.7 Δmg/dl | 44.4 Δmg/dl | 26.3 Δmg/dl | significantly depressed | effective action to depress the rise in blood sugar | strong sucrase-inhibiting action and maltase-inhibiting action |  |  |  |  | 
O=C(CO)[C@@H](O)[C@H](O)CO [D-Xylulose, D-xylulose] | inhibiting actions second to these |  |  |  | 19.9 |  |  |  | 11.9 | 67.3 Δmg/dl | 59.7 Δmg/dl | 27.5 Δmg/dl | significantly depressed | effective action to depress the rise in blood sugar | inhibiting actions second to these |  |  |  |  | 
O=C[C@@H](O)[C@H](O)[C@@H](O)CO [L-Xylose, L-xylose] | inhibiting actions second to these |  | 8 | 11.9 | 24.5 |  |  |  | 19.4 | 66.3 Δmg/dl | 53.2 Δmg/dl |  | significantly depressed | effective action to depress the rise in blood sugar | inhibiting actions second to these |  |  |  |  | 
C[C@H](O)[C@@H](O)[C@@H](O)[C@H](O)C=O [L-Fucose, L-fucose] | strong sucrase-inhibiting action | 11.6 | 16.2 | 32.8 | 30.7 | 16.4 | 18.4 | 24.8 | 31.0 | 62.0 Δmg/dl | 44.4 Δmg/dl | 26.3 Δmg/dl | significantly depressed | effective action to depress the rise in blood sugar | strong sucrase-inhibiting action and maltase-inhibiting action |  |  |  |  | 

Second part, led by results:

sucrase-inhibiting action (in words) [1] | inhibition at 250 µg/mL [1] [%] | inhibition at 500 µg/mL [1] [%] | inhibition at 1000 µg/mL [1] [%] | inhibition at 2000 µg/mL [1] [%] | Maltase inhibition rate ([2]; 25 mg/dl) [%] | Maltase inhibition rate ([2]; 50 mg/dl) [%] | Maltase inhibition rate ([2]; 100 mg/dl) [%] | Maltase inhibition rate ([2]; 200 mg/dl) [%] | Structure (SMILES) | Rise in blood sugar (rise in blood sugar; [3]) | Rise in blood sugar (rise in blood sugar; [4]) | Rise in blood sugar (rise in blood sugar; [5]) | action to depress the rise in blood sugar due to sucrose loading (in words) (rise in blood sugar) | action to depress the rise in blood sugar for sucrose or starch loading (in words) (rise in blood sugar) | maltase-inhibiting action (in words) [2] | Rise in blood sugar (rise in blood sugar; dose 25 mg/kg oral, after 30 min.) | Rise in blood sugar (rise in blood sugar; dose 25 mg/kg oral, after 60 min.) | Rise in blood sugar (rise in blood sugar; dose 50 mg/kg oral, after 30 min.) | Rise in blood sugar (rise in blood sugar; dose 50 mg/kg oral, after 60 min.) | Rise in blood sugar (rise in blood sugar; dose 50 mg/kg oral, after 120 min.)
inhibiting actions second to these |  |  |  | 23.4 |  |  |  | 22.3 | O=C[C@@H](O)[C@@H](O)[C@H](O)CO [D-Lyxose, D-lyxose] | 62.7 Δmg/dl | 57.0 Δmg/dl |  | significantly depressed | effective action to depress the rise in blood sugar | inhibiting actions second to these |  |  |  |  | 
strong sucrase-inhibiting action | 28.5 | 35.5 | 49.5 | 59.8 | 29.2 | 36.4 | 44.3 | 53.1 | O=C[C@H](O)[C@@H](O)[C@H](O)CO [D-Xylose, D-xylose] | 38.2 Δmg/dl | 45.2 Δmg/dl | 23.4 Δmg/dl | depressed in dependence on the dose | effective action to depress the rise in blood sugar | strong sucrase-inhibiting action and maltase-inhibiting action | 76.3 Δmg/dl | 55.4 Δmg/dl | 62.5 Δmg/dl | 47.3 Δmg/dl | 24.0 Δmg/dl
strong sucrase-inhibiting action | 13.7 | 17.8 | 34 | 33.4 | 13.5 | 18.4 | 33.3 | 46.5 | O=C[C@H](O)[C@H](O)[C@H](O)CO [D-Ribose, D-ribose] | 61.2 Δmg/dl | 48.5 Δmg/dl |  | significantly depressed | effective action to depress the rise in blood sugar | strong sucrase-inhibiting action and maltase-inhibiting action |  |  |  |  | 
